Results taken from ChEMBL document CHEMBL5257029, “Contemporary developments in the discovery of selective factor Xa inhibitors: A review” (Eur J Med Chem, 2016).

Each compound was assayed against Coagulation factor X (Homo sapiens, UniProt P00742) (assay: Binding affinity to FXa (unknown origin) assessed as inhibition constant).
Chain of Coagulation factor X (P00742 41-179 limits assumed): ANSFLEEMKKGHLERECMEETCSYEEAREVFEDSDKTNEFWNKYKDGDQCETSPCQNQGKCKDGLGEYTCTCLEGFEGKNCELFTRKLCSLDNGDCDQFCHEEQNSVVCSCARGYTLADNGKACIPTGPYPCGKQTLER
Chain of Coagulation factor X (P00742 235-488 limits assumed): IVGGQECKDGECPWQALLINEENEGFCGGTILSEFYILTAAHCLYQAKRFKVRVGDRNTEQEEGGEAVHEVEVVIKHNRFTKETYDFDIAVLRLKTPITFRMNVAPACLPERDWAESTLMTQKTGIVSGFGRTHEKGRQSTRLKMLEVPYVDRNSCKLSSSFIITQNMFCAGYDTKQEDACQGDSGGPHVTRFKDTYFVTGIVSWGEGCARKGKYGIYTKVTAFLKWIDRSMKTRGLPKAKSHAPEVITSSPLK
`NCc1cccc(-n2nc(C(F)(F)F)cc2C(=O)Nc2ccc(-c3ccccc3S(N)(=O)=O)cc2F)c1` showed a Ki of 0.91 nM.
With `N=C(N)c1ccc(C[C@@H](NC(=O)NC23CC4CC(CC(C4)C2)C3)C(=O)NCCc2ccccc2)cc1` the Ki was 25 nM.
`CC(C)N1CCC(NS(=O)(=O)CCNC(=O)c2ccc(Cl)s2)CC1` gave a Ki of 2 nM.
